By Kd is commonly meant the free concentration of one partner at which half of the binding sites on the other are occupied at equilibrium, for simple one-to-one binding.

One experiment deals with O-GlcNAcase (OGA). Kind of experiment: OGA occupancy after pretreatment with Thiamet-G (revisited Lassen plot). Format: in vivo, cynomolgus monkey.
Another experiment addresses OGA. Conditions: cited from earlier work.

Structures are written as SMILES. Entries after “also recorded” stand apart in the source; their conditions may differ.

Take `CCN=C1N[C@@H]2[C@@H](O)[C@H](O)[C@@H](CO)O[C@@H]2S1` [Thiamet-G]: the occupancy with O-GlcNAcase (OGA) (Thiamet-G 10 mg/kg i.v. 45 minutes prior to PET, 2TCM, one NHP) came to 97.6%. The “effect of pretreatment on [^11C]BIO-1819578 distribution volume (VT)” value in the experiment on O-GlcNAcase (OGA) (Thiamet-G 10 mg/kg i.v., NHP 3) is listed as “reduced the distribution volume in all brain regions; also recorded: decreased in all regions”.
Turning to `CC(=O)Nc1ncc(CN2CCC[C@H](N(C)c3ccc(F)cn3)C2)s1` [BIO-1819578], the Kd on OGA is 2.3 nM.

The values are drawn from article PMC11994644, “In vivo quantification of [^11C]BIO-1819578 in non-human primates, a novel radioligand for O-GlcNAcase” (Journal of Cerebral Blood Flow & Metabolism, 2025).
